Results reported in publication PMC11858653, “Design, Synthesis and Bioactive Evaluation of Topo I/c-MYC Dual Inhibitors to Inhibit Oral Cancer via Regulating the PI3K/AKT/NF-κB Signaling Pathway” (Molecules, 2025).

How the values were obtained:
c-MYC protein = test: Western blot of c-MYC protein in Cal27 cells; type: cell-based, human; settings: Cal27, 24 h
Protocol: (§1) After Cal27 cells had been treated with the desired concentration of each drug for 24 h, the cells were collected and the total protein was extracted. The cells were then separated on a gel of appropriate concentration and transferred to a PVDF membrane. After blocking with milk, the membrane was incubated with primary antibody at 4 °C overnight. Subsequently, the membrane was incubated with horseradish peroxidase-coupled secondary antibody for 2 h. Finally, the protein bands were used to detect the immunoreactive signal using an enhanced chemiluminescence kit.

ACHN = test: MTT antiproliferative assay, ACHN; type: cell-based, human; settings: Homo sapiens, ACHN, 48 h, mean ± SD
[1] = tested on: Bax, Bcl-2, Cleaved PARP1/PARP1 in Cal27 cells; test: Western blot of apoptosis-related proteins; type: cell-based, human
Protocol: as §1

Cal27 cells [2] = test: MTT cell survival with autophagy inhibitor CQ; type: cell-based, human; settings: Cal27, 20 μM CQ and different concentrations of 7be
Protocol: Meanwhile, to further confirm that compound 7be could induce autophagic death in Cal27 cells, we used a classical autophagy inhibitor, chloroquine (CQ), to evaluate the role of autophagy in compound 7be-mix-induced cell death.
Human oral cancer Cal27 cells were seeded in 96-well plates and incubated overnight in 180 μL of medium containing 10% Fetal Bovine Serum (Gibco, San Francisco, CA, USA). On the following day, compounds at final concentrations of 2.5, 5, 10 and 20 μM were added to each well and incubated for 48 h. Then, 10 μL of 5 mg/mL MTT solution was added to each well and incubated at 37 °C for 4 h. After 4 h of incubation at 37 °C, the MTT-containing medium was removed and DMSO was added to each well and the absorbance at 570 nm and 630 nm was measured using a microplate reader (CYTATION 3, Burton, Westwood, NJ, USA). Survival/% = (mean OD of experimental group/mean OD of control group) × 100%. Each test was repeated at least three times.

Cal27 cells [3] = test: Cell cycle analysis by flow cytometry; type: cell-based, human; settings: Cal27, 4 μM, 24 h
Protocol: Cal27 cells were treated with compound 7be for 24 h. Next, Cal27 cells were collected and suspended in ice ethanol at 4 °C for at least 24 h. Subsequently, Cal27 cells were incubated in RNase A and PI staining solution at 37 °C, protected from light, for 0.5 h. Finally, cells were detected by flow cytometry.

Topo I = target: T1, Topo I (Homo sapiens, UniProt P11387); test: Cellular thermal shift assay (CETSA); type: cell-based; set-up: endogenous in cells; host or cells: Cal27; settings: 8 μM
T1 sequence (P11387 1-765): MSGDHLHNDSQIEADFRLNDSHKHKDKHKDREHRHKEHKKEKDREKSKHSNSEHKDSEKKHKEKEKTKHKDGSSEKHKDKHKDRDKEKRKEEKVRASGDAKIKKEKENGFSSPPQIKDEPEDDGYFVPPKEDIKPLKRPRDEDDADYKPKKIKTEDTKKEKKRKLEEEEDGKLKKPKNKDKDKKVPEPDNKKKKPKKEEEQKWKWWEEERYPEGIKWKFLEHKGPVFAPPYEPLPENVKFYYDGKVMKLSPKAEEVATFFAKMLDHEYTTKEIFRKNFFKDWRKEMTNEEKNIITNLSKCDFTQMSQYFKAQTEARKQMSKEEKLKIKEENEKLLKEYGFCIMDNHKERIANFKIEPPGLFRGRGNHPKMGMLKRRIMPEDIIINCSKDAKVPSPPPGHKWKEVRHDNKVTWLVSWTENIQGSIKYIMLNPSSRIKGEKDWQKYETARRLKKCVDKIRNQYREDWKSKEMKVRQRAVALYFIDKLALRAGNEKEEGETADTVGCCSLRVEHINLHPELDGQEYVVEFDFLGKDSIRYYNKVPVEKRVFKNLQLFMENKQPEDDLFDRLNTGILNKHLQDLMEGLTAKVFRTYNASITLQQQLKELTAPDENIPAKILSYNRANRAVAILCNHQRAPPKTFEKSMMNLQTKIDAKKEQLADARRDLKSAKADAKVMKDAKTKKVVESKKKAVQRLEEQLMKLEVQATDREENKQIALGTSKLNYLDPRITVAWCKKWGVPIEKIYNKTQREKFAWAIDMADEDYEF
Protocol: For intact cell assays, Cal27 cells were treated with compound 7be (8 μM) for 3 h before collection and washing several times with PBS buffer to avoid excess compound residues. Each cell suspension was dispensed into different 0.2 mL PCR tubes and then denatured for 3 min at different temperatures on a PCR instrument, and the cells were freeze-thawed twice with liquid nitrogen. After centrifugation, the supernatant was collected, mixed with an appropriate amount of up-sampling buffer and boiled at 95 °C for 6 min. The supernatant was detected by Western blot. For cell lysate experiments, Cal27 cells were collected with RIPA lysis buffer. Then compound 7be (8 μM) was added to the supernatant and incubated at 25 °C for 2 h. After denaturation at different temperatures for 3 min, centrifugation was performed before collecting the supernatant, mixing with an appropriate amount of lysing buffer and boiling at 95 °C for 6 min, and then Western blot was performed to detect the supernatant.

Cal27 = test: MTT antiproliferative assay, Cal27; type: cell-based, human; settings: Homo sapiens, CAL-27, 48 h, mean ± SD
Cal27 cells [4] = test: Annexin V-FITC/PI apoptosis assay; type: cell-based, human; settings: Cal27, 24 h, increased from 5.88%; treated with 1, 2, 3 and 4 μM
Protocol: Cal27 cells were treated with compound 7be for 24 h. Tumor cells were then digested and collected. The resulting cells were incubated with Annexin V/PI light-avoidance staining for 0.5 h. Finally, different stages of apoptosis populations of Cal27 cells were immediately analyzed by flow cytometry.

Cc1cc(C)c2c(n1)S(=O)(=O)c1c-2nc(NCCN2CCCCC2)c2ccccc12 [7be, 7,9-Dimethyl-5-((2-(piperidin-1-yl)ethyl)amino) pyrido[3′,2′:4,5]thieno[3,2-c]isoquinoline 11,11-dioxide]
concentration needed to significantly downregulate the level of c-MYC protein (c-MYC protein): 2 µM | IC50 (ACHN): 3250 ± 1590 nM | Cleaved PARP1/PARP1 [1]: up-regulated | anti-apoptotic protein Bcl-2 [1]: down-regulated | pro-apoptotic protein Bax [1]: up-regulated | cell survival rate of combined treatment with 20 μM CQ (Cal27 cells [2]): higher than that of the group treated with compound 7be alone | cells in S (Cal27 cells [3]): 54.06% | thermal stability of Topo I protein, cell lysate (Topo I; Cal27 lysate, 2 h, especially 52 to 56 °C): increased | thermal stability of Topo I protein, intact cells (Topo I; intact Cal27 cells, 3 h): increase in thermal stability | IC50 (Cal27): 1120 ± 220 nM | number of apoptotic cells (early and late apoptotic cells) (Cal27 cells [4]): 32.8%
